# “And” between values parts separate entries of the source, which are not always exact repeats. Equal entries are not always repeated. Where two headings read alike, the source gives them in different places.
# Assays:
# CB1 (rCB1) = CB1 (rCB1) (Rattus norvegicus, UniProt P20272); assay: Radioligand competition binding, [3H]-CP-55,940, rat brain membranes
# hCB1 = hCB1 (Homo sapiens, UniProt P21554); assay: bioSensAll ebBRET signaling profiling, hCB1; assay type: cell-based; parameters: host or cells: HEK293SL cells, transient PEI transfection; conditions: for Gi1 hCB1 response: Gi1 biosensor; for Gi1 hCB1 / GoB hCB1: single replicate values, FigS6a; for EC50: read-out: EC50 [95% CI]; for Emax: normalized to CP-55,940
# Sequence of hCB1 (P21554 whole entry): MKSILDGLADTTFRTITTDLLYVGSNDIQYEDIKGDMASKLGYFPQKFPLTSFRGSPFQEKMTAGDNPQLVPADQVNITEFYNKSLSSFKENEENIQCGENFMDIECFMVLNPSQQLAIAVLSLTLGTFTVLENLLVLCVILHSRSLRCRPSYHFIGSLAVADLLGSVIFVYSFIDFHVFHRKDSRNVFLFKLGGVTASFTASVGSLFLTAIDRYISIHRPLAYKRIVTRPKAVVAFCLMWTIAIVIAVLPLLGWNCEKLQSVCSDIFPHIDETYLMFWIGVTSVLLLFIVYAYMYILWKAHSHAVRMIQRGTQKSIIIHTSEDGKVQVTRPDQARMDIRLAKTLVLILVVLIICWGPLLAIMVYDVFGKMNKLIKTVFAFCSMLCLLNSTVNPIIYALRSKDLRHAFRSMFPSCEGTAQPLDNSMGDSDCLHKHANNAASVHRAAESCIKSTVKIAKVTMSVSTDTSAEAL
# Sequence of CB1 (rCB1) (P20272 whole entry): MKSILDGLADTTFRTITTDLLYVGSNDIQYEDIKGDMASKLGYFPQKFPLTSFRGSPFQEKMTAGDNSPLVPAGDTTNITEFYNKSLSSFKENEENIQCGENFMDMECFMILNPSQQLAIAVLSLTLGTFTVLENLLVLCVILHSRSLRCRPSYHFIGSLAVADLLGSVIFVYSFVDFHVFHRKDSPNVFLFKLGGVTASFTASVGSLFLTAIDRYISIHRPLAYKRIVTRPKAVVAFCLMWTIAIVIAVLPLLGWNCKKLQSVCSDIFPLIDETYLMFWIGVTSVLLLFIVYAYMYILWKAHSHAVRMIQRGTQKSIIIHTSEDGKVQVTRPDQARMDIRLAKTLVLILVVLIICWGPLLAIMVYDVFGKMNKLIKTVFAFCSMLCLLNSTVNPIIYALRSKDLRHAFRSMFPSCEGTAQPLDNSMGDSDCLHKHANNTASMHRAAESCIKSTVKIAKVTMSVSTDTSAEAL
compound,measurement,setting,value
CC(=O)C(c1cccs1)N(C)C(=O)c1cc(C)n(-c2cccc(C(F)(F)F)c2)n1 (stereo not shown) [‘6829],pKi [95% CI],CB1 (rCB1); rCB1,6.0 [5.8 – 6.2]
same,Ki,"CB1 (rCB1); read-out: Ki [95% CI], rCB1, [3H]-CP-55,940",1050 nM
same,Gi1 hCB1 response,hCB1; Log [Compound] (M) -4.22186,50.5929
same,Gi1 hCB1 response,hCB1; Log [Compound] (M) -4.63927,80.4274
same,Gi1 hCB1 response,hCB1; Log [Compound] (M) -5.05788,60.8884
same,Gi1 hCB1 response,hCB1; Log [Compound] (M) -5.47381,50.1453
same,Gi1 hCB1 response,hCB1; Log [Compound] (M) -5.89285,25.0333
same,Gi1 hCB1 response,hCB1; Log [Compound] (M) -6.31878,14.2679
same,Gi1 hCB1 response,hCB1; Log [Compound] (M) -6.72585,9.501
same,Gi1 hCB1 response,hCB1; Log [Compound] (M) -7.14267,-0.2577
same,Gi1 hCB1 response,hCB1; Log [Compound] (M) -7.55284,-0.3025
same,Gi1 hCB1 response,hCB1; Log [Compound] (M) -8,-3.011
same,Gi1 hCB1 response,hCB1; Log [Compound] (M) -8.22186,2.07
same,Gi1 hCB1 response,hCB1; Log [Compound] (M) -8.39794,-6.077
same,Gi1 hCB1 response,hCB1; Log [Compound] (M) -8.68787,2.45
same,Gi1 hCB1 response,hCB1; Log [Compound] (M) -9.15521,5.629
same,Gi1 hCB1 response,hCB1; Log [Compound] (M) -9.61989,-3.749
same,Gi1 hCB1 response,hCB1; Log [Compound] (M) -10.0969,-4.958
same,Gi1 hCB1 response,hCB1; Log [Compound] (M) -10.5529,-8.091
same,Gi1 hCB1 response,hCB1; Log [Compound] (M) -11.0177,-9.456
same,Gi1 hCB1 response,hCB1; Log [Compound] (M) -11.4949,-2.585
same,Gi1 hCB1 response,hCB1; Log [Compound] (M) -11.9208,-4.1073
same,Gi1 hCB1 response,hCB1; Log [Compound] (M) -12.3979,-11.8513
same,Gi1 hCB1 response,hCB1; Log [Compound] (M) -12.8861,-4.7116
same,Gi1 hCB1 response,"hCB1; Log [Compound] (M) -13, individual replicate values",-0.3696 and -4.085
same,Gi1 hCB1,hCB1; Log [Compound] (M) -4.22186,59.6278
same,GoB hCB1,hCB1; Log [Compound] (M) -4.22186,46.0809
same,Gi1 hCB1,hCB1; Log [Compound] (M) -4.63927,49.4067
same,GoB hCB1,hCB1; Log [Compound] (M) -4.63927,48.6345
same,Gi1 hCB1,hCB1; Log [Compound] (M) -5.05788,40.28
same,GoB hCB1,hCB1; Log [Compound] (M) -5.05788,42.8439
same,Gi1 hCB1,hCB1; Log [Compound] (M) -5.47381,35.5317
same,GoB hCB1,hCB1; Log [Compound] (M) -5.47381,37.2331
same,Gi1 hCB1,hCB1; Log [Compound] (M) -5.89285,23.7381
same,GoB hCB1,hCB1; Log [Compound] (M) -5.89285,25.7777
same,Gi1 hCB1,hCB1; Log [Compound] (M) -6.31878,13.3781
same,GoB hCB1,hCB1; Log [Compound] (M) -6.31878,16.7141
same,Gi1 hCB1,hCB1; Log [Compound] (M) -6.72585,9.694
same,GoB hCB1,hCB1; Log [Compound] (M) -6.72585,6.7333
same,Gi1 hCB1,hCB1; Log [Compound] (M) -7.14267,3.188
same,GoB hCB1,hCB1; Log [Compound] (M) -7.14267,2.399
same,Gi1 hCB1,hCB1; Log [Compound] (M) -7.55284,5.377
same,GoB hCB1,hCB1; Log [Compound] (M) -7.55284,1.374
same,Gi1 hCB1,hCB1; Log [Compound] (M) -8,4.359
same,GoB hCB1,hCB1; Log [Compound] (M) -8,2.831
same,Gi1 hCB1,hCB1; Log [Compound] (M) -8.22186,1.1836
same,GoB hCB1,hCB1; Log [Compound] (M) -8.22186,-4.488
same,Gi1 hCB1,hCB1; Log [Compound] (M) -8.39794,5.593
same,GoB hCB1,hCB1; Log [Compound] (M) -8.39794,1.554
same,Gi1 hCB1,hCB1; Log [Compound] (M) -8.68787,1.615
same,GoB hCB1,hCB1; Log [Compound] (M) -8.68787,-3.931
same,Gi1 hCB1,hCB1; Log [Compound] (M) -9.15521,2.463
same,GoB hCB1,hCB1; Log [Compound] (M) -9.15521,-1.036
same,Gi1 hCB1,hCB1; Log [Compound] (M) -9.61989,0.7057
same,GoB hCB1,hCB1; Log [Compound] (M) -9.61989,-1.161
same,Gi1 hCB1,hCB1; Log [Compound] (M) -10.0969,1.353
same,GoB hCB1,hCB1; Log [Compound] (M) -10.0969,-3.463
same,Gi1 hCB1,hCB1; Log [Compound] (M) -10.5529,1.137
same,GoB hCB1,hCB1; Log [Compound] (M) -10.5529,1.105
same,Gi1 hCB1,hCB1; Log [Compound] (M) -11.0177,3.142
same,GoB hCB1,hCB1; Log [Compound] (M) -11.0177,-0.532
same,Gi1 hCB1,hCB1; Log [Compound] (M) -11.4949,2.879
same,GoB hCB1,hCB1; Log [Compound] (M) -11.4949,1.392
same,Gi1 hCB1,hCB1; Log [Compound] (M) -11.9208,3.126
same,GoB hCB1,hCB1; Log [Compound] (M) -11.9208,1.392
same,Gi1 hCB1,hCB1; Log [Compound] (M) -12.3979,4.159
same,GoB hCB1,hCB1; Log [Compound] (M) -12.3979,2.561
same,Gi1 hCB1,hCB1; Log [Compound] (M) -12.8861,3.496
same,GoB hCB1,hCB1; Log [Compound] (M) -12.8861,2.705
same,Gi1 hCB1,hCB1; Log [Compound] (M) -13,3.327 and 1.677
same,GoB hCB1,hCB1; Log [Compound] (M) -13,-2.744 and -3.607
same,pEC50 [95% CI],hCB1; hCB1 Gi1,5.4 [5.0 – 5.6]
same,pEC50 [95% CI],hCB1; hCB1 GoB,6.0 [5.8 – 6.2]
same,pEC50 [95% CI],hCB1; hCB1 Gz,5.9 [6.0 – 6.2]
same,EC50,hCB1; hCB1 Gi1,4060 nM
same,EC50,hCB1; hCB1 Gz,1350 nM
same,Emax,"hCB1; read-out: Emax [95% CI], hCB1 Gi1",68%
same,Emax,"hCB1; read-out: Emax [95% CI], hCB1 GoB",49%
same,Emax,"hCB1; read-out: Emax [95% CI], hCB1 Gz",70%

# Source: publication PMC11882969 (Nature Communications, 2025)
